Data set [1] can be described thus: Body weight and hematology analysis in xenograft mice. Type of data set: in vivo. As for the experimental part: Totally 50 female […] mice from Shanghai Slac Laboratory Animal Co. Ltd were used for the xenograft models with human MM cell lines OPM2 and JJN3, respectively. When tumors were palpable, the OPM2-xenograft mice were randomly divided into two groups. One group as a control was received the vehicle, and another group was orally administrated C98 (80 mg/kg) once a day for continuous 16 days. The JJN3 xenografted mice were randomly divided into three groups which were orally administrated vehicle or C98 (40 or 80 mg/kg), respectively. Body weight and tumor volumes were measured every other day as described previously. At the end of this experiment, tumors were collected for further studies. The concentrations of C98 in tumor tissues were also determined by LC-MS/MS as described above. All experiments involved in mice were reviewed and approved by the Review Board of Animal Care and Use of Soochow University.
At the end of the experiment of the in vivo studies, whole blood samples were collected from the eyes and were immediately subject to complete blood analysis as described previously. […]
www.impactjournals.com/oncotarget/ Oncotarget, Supplementary Materials 2014 […]
OPM2 (A) and JJN3 (B) were injected (s.c.) […]
into nude mice. When tumors were palpable, mice were orally administrated C98 at dosage as indicated for continued 16 days. Mice bodyweight was monitored every other day. […]

Data set [2] addresses recombinant human PI3K isoform α (Homo sapiens, UniProt P42336). Description: Kinase activity in cell-free assay (HotSpot), PI3Kα. Type of data set: biochemical. Particulars: read-out: IC50 against PI3K α isoform. Here is the method: (§1) To confirm this hypothesis, the inhibitory potency of C98 on PI3K enzymes was measured in a cell-free system with individual recombinant human PI3K isoforms. […] To further evaluate its specificity on PI3K, the effects of C98 on other associated kinases AKT, PDK1, and mTOR were also measured in the enzymatic systems. […] Therefore, C98 preferred to inhibit PI3K activity.
(§2) Figure 1 C98 inhibits PI3K activity (A) Chemical structure of C98. (B) OPM2 cells were starved overnight and then treated with six compounds identified from the virtual screening for 2 hr, followed by IGF-1 stimulation for 15 min. Cell lysates were prepared for AKT expression and phosphorylation analyses. The known PI3K inhibitor S14161 was used as a positive control. (C) OPM2 cells were starved overnight, then treated with C98 at indicated concentration (25, 50 and 100 μM) or S14161 (100 μM) for 2 hr, followed by IGF-1 (100 ng/mL) stimulation for 15 min Cell lysates were prepared for AKT expression and phosphorylation analyses. […] Activity of each kinase was determined with HotSpot technology as described in the Methods section “Kinase activity in cell-free assay”. […]

Another data set relates to OPM2 xenograft. Nature of the data set: OPM2 myeloma xenograft in nude mice. Type of data set: in vivo. The settings on record: 80 mg/kg oral daily.
For the next data set, the system named is OPM2 and RPMI-8226 cells. Nature of the data set: MTT assay with IGF-1 rescue. The settings on record: OPM2 and RPMI-8226, IGF-1 alone or together with C98, 48 hr. Type of data set: cell-based. As for the experimental part:
(§3) To answer whether C98 could induce apoptosis in other MM cells, 5 more MM cells were subject to the study. […] Cell apoptosis induced by C98 was further confirmed by the increased fraction of positive cells stained with Annexin V (Figure 5). To show whether activated PI3K signals can rescue C98 effects on MM cells, both OPM2 and RPMI-8226 cells were treated with IGF-1 alone or together with C98 for 48 hr followed by MTT assay.
Cell viability was assessed with the MTT assay as reported previously. To show apoptosis, MM cells were incubated for 24 hr with increasing concentrations of C98 before being stained with Annexin V-FITC and propidium iodide (BioVision Milpitas, CA). Apoptotic cells were measured on a flow cytometer (FACSCalibur®, Becton Dickinson) as reported as previously. […]
www.impactjournals.com/oncotarget/ Oncotarget, Supplementary Materials 2014
Supplementary Figure S3: IGF-1 rescues C98-decreased MM cell proliferation. OPM2 and RPMI-8226 cells were treated with IGF-1 alone or increased C98 for 48 hr, followed by MTT assay. […]

The subject of a further data set is ERK. Nature of the data set: Immunoblotting of ERK phosphorylation in OPM2 and JJN3 cells. Format: cell-based, human. Particulars: OPM2 and JJN3, 24 hr. Here is the method: (B) LP1 and JJN3 cells were starved overnight, then treated with C98 or S14161 for 2 hr, followed by IGF-1 (100 ng/mL) for 15 min. Cells were then prepared for the analysis of the expression of p-AKT, t-AKT, p-IGF-1R, and IGF-1R by immunoblotting. (C) OPM2 and JJN3 cells were treated with increasing concentrations of C98 for 24 hr before being applied to immunoblotting against p-ERK, t-ERK, p-P38, t-P38, p-Src, t-Src, p-STAT3, or t-STAT3. GAPDH and β-actin were used as loading controls.
To further clarify the effects of C98 on other signaling pathways associated with PI3K signaling, we evaluated ERK and p38, both of which mediate extracellular signaling similar to PI3K. […] We also checked the phosphorylation status of STAT3, a signal transducer and activator of transcription. […] Therefore, C98 had no effects on these kinases/proteins associated with PI3K signaling.
(§4) The immunoblotting assays were performed as described previously. IRDye 680 goat anti-mouse and IRDye 800CW goat anti-rabbit antibodies were from Odyssey (San Ramon, CA, USA).

The next data set relates to JJN3 cells. Nature of the data set: Immunoblotting of caspase-3 activation in JJN3 cells. Format: cell-based, human. Particulars: JJN3, 0-20 μM 24 hr or 10 μM 0-9 hr. As for the experimental part: as §3
Figure 4 C98 activates apoptotic signaling in MM cells (A) JJN3 cells were treated with C98 (0, 2.5, 5, 10, 20 μM) for 24 hr or 10 μM for 0, 3, 6, or 9 hr, followed by immunoblotting for the expression of p-AKT, t-AKT, pro-caspase-3 (Pro-Casp3), and cleaved caspase-3 (Cle-Casp3). (B) KMS11, LP1, OCI-My5, OPM2, JJN3, and RPMI-8226 were treated with C98 (20 μM) for 24 hr, followed by immunoblotting for the expression of PARP, Pro-Casp3, and Cle-Casp3. GAPDH was used as a loading control.
as §4

Data set [3] addresses recombinant human PI3K isoform β (Homo sapiens, UniProt P42338). Description: Kinase activity in cell-free assay (HotSpot), PI3Kβ. Format: biochemical. Particulars: read-out: IC50 against PI3K β isoform. Here is the method: as §1, §2

Molecules are shown by their SMILES.

Sequence of recombinant human PI3K isoform α (P42336 whole entry, canonical isoform): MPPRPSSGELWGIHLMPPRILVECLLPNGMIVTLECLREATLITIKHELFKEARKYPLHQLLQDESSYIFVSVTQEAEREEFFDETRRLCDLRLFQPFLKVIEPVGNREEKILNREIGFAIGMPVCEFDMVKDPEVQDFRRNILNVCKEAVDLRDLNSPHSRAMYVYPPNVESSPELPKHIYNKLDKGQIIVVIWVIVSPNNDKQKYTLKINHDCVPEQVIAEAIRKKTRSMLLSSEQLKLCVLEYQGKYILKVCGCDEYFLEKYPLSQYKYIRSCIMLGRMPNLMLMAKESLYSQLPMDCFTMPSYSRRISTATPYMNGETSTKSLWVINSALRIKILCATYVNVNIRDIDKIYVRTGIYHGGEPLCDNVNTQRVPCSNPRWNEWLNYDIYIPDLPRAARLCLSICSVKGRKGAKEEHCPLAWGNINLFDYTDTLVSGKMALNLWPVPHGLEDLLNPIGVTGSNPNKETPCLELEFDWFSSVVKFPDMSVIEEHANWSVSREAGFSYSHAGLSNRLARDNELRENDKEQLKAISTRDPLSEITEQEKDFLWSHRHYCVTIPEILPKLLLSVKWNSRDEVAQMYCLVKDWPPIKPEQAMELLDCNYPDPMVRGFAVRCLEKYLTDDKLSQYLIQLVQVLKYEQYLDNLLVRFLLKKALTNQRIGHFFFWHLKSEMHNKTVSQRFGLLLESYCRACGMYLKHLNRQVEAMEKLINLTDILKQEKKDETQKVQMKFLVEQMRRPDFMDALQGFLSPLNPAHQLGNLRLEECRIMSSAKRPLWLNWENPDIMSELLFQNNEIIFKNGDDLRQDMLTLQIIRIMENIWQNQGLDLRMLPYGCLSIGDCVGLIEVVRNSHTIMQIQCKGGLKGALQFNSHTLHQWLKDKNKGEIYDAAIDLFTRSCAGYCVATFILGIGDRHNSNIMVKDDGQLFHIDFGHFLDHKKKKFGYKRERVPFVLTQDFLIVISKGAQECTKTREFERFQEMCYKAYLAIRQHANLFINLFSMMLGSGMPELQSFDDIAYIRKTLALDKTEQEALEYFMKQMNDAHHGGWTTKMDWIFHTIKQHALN
Sequence of recombinant human PI3K isoform α (P27986 whole entry partner, canonical isoform): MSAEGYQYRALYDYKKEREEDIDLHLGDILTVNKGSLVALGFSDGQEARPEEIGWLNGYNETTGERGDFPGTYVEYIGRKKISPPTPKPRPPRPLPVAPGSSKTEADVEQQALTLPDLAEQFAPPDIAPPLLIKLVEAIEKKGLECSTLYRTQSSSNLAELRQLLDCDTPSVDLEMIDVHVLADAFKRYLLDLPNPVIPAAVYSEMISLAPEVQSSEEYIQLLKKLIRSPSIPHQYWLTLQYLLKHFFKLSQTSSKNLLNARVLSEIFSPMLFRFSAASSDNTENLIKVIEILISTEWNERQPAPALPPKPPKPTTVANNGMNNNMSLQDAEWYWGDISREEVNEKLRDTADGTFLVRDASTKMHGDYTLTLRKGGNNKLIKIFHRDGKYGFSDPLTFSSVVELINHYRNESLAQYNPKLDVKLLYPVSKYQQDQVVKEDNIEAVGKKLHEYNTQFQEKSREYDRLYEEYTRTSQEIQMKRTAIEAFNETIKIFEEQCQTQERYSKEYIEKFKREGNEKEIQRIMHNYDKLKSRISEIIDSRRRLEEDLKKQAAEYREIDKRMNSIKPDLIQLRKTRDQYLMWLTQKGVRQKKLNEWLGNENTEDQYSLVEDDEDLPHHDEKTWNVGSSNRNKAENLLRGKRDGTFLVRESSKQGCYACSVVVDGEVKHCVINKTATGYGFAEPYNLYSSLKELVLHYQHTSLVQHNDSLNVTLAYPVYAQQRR
Sequence of recombinant human PI3K isoform β (P42338 whole entry, canonical isoform): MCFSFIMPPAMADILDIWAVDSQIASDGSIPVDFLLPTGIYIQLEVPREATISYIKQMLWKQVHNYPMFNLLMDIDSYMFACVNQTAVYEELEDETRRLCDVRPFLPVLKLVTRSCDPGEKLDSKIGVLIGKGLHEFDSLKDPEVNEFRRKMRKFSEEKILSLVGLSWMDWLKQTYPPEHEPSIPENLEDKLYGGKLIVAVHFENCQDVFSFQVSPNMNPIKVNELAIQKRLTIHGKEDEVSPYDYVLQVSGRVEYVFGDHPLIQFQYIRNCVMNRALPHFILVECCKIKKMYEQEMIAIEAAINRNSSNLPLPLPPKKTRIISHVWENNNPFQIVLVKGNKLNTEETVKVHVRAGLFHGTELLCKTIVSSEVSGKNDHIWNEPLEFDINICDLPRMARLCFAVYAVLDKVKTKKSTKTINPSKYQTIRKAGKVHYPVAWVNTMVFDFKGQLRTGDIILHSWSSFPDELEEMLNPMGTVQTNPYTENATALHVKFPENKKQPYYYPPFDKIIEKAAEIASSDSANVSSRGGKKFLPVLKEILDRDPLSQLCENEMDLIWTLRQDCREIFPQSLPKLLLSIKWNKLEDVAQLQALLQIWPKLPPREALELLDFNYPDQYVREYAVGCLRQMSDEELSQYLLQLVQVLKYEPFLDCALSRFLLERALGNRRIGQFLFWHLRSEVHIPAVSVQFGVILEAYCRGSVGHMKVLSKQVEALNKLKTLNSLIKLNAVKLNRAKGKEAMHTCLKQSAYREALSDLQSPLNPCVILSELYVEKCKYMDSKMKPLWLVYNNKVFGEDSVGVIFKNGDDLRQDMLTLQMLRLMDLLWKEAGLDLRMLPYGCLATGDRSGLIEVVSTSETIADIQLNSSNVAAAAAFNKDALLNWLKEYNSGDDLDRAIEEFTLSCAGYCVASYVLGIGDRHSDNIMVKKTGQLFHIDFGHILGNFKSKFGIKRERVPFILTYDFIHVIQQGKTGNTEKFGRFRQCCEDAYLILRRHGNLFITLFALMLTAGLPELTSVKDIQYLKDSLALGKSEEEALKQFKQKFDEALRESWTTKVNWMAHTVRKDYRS
Sequence of recombinant human PI3K isoform β (P27986 whole entry partner, canonical isoform): as the sequence (P27986 whole entry partner, canonical isoform) above

Consider `N#C/C(=C\C=C\c1ccc(-c2cc(Cl)ccc2Cl)o1)C(N)=S` [C98], for which the “body weight of mice” value in data set [1] (OPM2 and JJN3 xenograft models, oral 40 or 80 mg/kg, 16 days) was “had no effects on body weight”. Moreover, the “blood cell count, platelet count, hemoglobin measurement” value in data set [1] (mice treated with C98, end of the in vivo studies (data not shown)) is “no significant changes”. Moreover, the IC50 in data set [2] was determined as 0.59 µM; in data set [3] it was 1.64 µM. For the same molecule, the “tumors decreased to % of the vehicle control” value with OPM2 xenograft (16-day treatment) stood at 45%. Moreover, the “tumor volume at the end of the experiment” value in the data set on OPM2 xenograft (16 days) was 605.8 ± 115.7 mm^3. Also, in the data set on OPM2 and RPMI-8226 cells, the “MM cell proliferation (MTT), rescue by IGF-1” value is “IGF-1 could partly abolish C98-decreased MM cell proliferation”. Moreover, in the data set with ERK, the “phosphorylation level of ERK” value was “failed to decrease”. Besides, in the data set with JJN3 cells, the caspase-3 activation entry was “activated caspase-3 in a time- and concentration-dependent manner”.

The values above are taken from PMC4381587, “A novel PI3K inhibitor PIK-C98 displays potent preclinical activity against multiple myeloma” (Oncotarget, 2014).
